The text below walks through data of ChEMBL document CHEMBL1201862, “PubChem BioAssay data set” (2004).

Each structure is given as a SMILES string. Activity calls are given as the source filed them.

Assay [1] has as its target Dual specificity tyrosine-phosphorylation-regulated kinase 1A (Rattus norvegicus, UniProt Q63470). The format is biochemical, Homo sapiens.
The nature of assay [2]: HEK-293T viability loss after treatment – luminescence, T-cell screen hits, cytotoxicity control for TCR NF-kB inhibitor project, dose response (AID 489026).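 Further: cells exposed to compound about 14 hours before the viability readout.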 Format: functional, cell-based.
A short description of assay [3]: viability of uninfected HEp-2 cells – cell-based, HTS, cytotoxicity control for RSV inhibitor project, dose response (AID 2410). The format is functional. As to conditions: human respiratory syncytial virus.
Assay [4] addresses DNA dC->dU-editing enzyme APOBEC-3G (Homo sapiens, UniProt Q9HC16). The experiment in a line: Dose Response confirmation of small molecule APOBEC3G DNA Deaminase Inhibitors via a fluorescence-based single-stranded DNA deaminase assay. [Related pubchem assays (depositor defined):AID493012, AID493028]. Format: functional.
The target of assay [5] is T1, Mannose-6-phosphate isomerase (Homo sapiens, UniProt P34949).
T1 sequence (P34949 whole entry): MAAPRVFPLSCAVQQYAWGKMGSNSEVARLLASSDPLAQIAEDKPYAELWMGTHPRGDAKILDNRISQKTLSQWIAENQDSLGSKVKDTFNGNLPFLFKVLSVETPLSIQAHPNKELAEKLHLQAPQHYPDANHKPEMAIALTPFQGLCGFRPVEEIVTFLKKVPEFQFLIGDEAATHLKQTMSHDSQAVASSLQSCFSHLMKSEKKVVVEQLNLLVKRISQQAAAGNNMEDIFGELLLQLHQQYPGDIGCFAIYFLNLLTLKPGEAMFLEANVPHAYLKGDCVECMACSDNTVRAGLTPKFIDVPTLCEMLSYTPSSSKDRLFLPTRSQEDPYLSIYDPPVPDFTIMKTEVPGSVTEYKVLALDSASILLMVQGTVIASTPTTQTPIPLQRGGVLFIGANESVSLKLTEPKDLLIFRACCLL
The experiment in a line: MPI inhibition at elevated mannose 6-phosphate – biochemical, fluorescence intensity, high mannose 6-phosphate, primary screen (AID 1220).

In assay [6] the target is Peroxisome proliferator-activated receptor gamma/Nuclear receptor coactivator 1 (Homo sapiens, UniProt P37231). As to the kind of experiment: TR-FRET dose response biochemical High Throughput Screening assay for agonists of the steroid receptor coactivator 1 (SRC-1) recruitment by the peroxisome proliferator-activated receptor gamma (PPAR gamma): non-selective agonists. [Related pubchem assays (depositor defined):AID1300, AID1808, AID504735, AID631]. The format is protein assay. In general terms: Time-resolved FRET reads energy transfer from a long-lived donor to a nearby acceptor.

Assay [7] deals with Peroxisome proliferator-activated receptor gamma/Nuclear receptor coactivator 3 (Homo sapiens, UniProt P37231). The experiment in a line: TR-FRET dose response biochemical High Throughput Screening assay for agonists of the steroid receptor coactivator 3 (SRC-3) recruitment by the peroxisome proliferator-activated receptor gamma (PPAR gamma): non-selective agonists. [Related pubchem assays: 1301 (Confirmation screen.), 1048 (Primary screen.)]. The format is functional.
Peroxisome proliferator-activated receptor gamma/Nuclear receptor coactivator 3, sequence (P37231 whole entry): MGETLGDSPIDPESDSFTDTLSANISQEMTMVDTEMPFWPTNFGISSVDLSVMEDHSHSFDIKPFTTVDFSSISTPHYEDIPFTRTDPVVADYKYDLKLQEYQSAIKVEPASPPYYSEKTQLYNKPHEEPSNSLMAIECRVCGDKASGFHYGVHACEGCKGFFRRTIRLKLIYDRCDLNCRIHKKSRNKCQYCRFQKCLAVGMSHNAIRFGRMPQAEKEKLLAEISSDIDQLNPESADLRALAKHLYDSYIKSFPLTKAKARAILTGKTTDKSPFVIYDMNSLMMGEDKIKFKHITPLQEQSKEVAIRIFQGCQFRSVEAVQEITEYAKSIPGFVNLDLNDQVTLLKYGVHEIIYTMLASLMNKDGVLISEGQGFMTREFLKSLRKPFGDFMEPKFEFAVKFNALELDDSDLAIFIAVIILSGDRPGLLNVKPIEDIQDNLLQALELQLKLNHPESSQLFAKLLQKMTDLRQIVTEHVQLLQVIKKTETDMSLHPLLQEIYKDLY
Peroxisome proliferator-activated receptor gamma/Nuclear receptor coactivator 3, sequence (Q9Y6Q9 whole entry, further chain): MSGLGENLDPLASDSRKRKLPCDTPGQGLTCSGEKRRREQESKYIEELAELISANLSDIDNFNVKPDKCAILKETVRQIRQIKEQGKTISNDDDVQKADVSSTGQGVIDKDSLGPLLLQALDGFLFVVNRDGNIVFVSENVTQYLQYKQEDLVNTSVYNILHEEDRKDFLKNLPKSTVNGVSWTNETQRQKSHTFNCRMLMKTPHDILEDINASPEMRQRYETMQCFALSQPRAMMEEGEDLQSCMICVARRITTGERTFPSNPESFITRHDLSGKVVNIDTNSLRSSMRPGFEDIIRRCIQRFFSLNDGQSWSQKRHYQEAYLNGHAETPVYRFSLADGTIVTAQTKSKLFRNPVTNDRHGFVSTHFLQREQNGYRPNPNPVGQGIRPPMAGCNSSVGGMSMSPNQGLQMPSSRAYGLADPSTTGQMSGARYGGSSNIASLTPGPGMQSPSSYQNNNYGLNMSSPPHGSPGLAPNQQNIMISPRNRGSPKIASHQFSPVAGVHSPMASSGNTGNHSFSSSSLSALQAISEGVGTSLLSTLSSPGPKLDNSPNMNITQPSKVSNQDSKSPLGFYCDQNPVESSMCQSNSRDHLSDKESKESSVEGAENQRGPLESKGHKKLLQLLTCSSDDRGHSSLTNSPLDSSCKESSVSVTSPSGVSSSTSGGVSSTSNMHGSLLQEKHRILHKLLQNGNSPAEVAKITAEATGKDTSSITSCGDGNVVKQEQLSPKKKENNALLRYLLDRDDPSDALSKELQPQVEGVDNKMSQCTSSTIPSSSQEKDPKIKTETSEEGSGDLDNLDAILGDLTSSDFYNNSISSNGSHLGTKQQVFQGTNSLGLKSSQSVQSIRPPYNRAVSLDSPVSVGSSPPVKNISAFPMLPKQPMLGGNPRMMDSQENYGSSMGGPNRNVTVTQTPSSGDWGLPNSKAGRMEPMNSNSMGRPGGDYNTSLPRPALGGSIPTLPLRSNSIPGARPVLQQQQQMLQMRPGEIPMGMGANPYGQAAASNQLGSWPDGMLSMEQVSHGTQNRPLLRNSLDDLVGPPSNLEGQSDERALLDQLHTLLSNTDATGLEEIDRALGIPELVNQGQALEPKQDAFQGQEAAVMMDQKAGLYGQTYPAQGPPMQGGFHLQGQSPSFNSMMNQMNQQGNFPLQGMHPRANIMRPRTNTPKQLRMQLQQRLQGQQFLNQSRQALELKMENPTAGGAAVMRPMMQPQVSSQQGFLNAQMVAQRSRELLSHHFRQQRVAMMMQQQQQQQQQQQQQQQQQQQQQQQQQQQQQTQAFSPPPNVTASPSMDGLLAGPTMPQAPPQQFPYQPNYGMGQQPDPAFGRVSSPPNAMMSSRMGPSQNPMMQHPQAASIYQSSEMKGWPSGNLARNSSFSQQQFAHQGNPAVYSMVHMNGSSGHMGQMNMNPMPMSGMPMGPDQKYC

The next assay deals with Large T antigen (Simian virus 40, UniProt P03070). Format: functional, Betapolyomavirus macacae.
Assay [8] addresses Peroxisome proliferator-activated receptor gamma/Nuclear receptor coactivator 2 (Homo sapiens, UniProt P37231). As to the kind of experiment: TR-FRET dose response biochemical High Throughput Screening assay for agonists of the steroid receptor coactivator 2 (SRC-2) recruitment by the peroxisome proliferator-activated receptor gamma (PPAR gamma): non-selective agonists. [Related pubchem assays: 1297, 1032 ]. Format: functional.

Assay [9] addresses Glucose-6-phosphate 1-dehydrogenase (Homo sapiens, UniProt P11413). As to the kind of experiment: inhibition of Homo sapiens G6PD, dose series – biochemical, fluorescence, selectivity assay for P. falciparum G6PD inhibitor project, dose response (AID 504792). Format: functional.
Assay [10] in a line: reduction of Shn3 3'UTR-driven luciferase in osteoblasts – cell-based, Clone20 osteoblasts, firefly luciferase, cherry-picked, dose response (AID 624132).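 Further: firefly luciferase luminescence from reporter carrying the Shn3 3'UTR in osteoblasts.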 The format is functional.
Assay [11] is described as follows: loss of viability in HepG2 cells – cell-based, CellTiter-Glo, cherry-picked, cytotoxicity control for Shn3 inhibitor project, dose response (AID 624134). The format is functional. (Cellular ATP, detected with luciferase, serves as a proxy for viable cell number.)
Assay [12] deals with T2, Histone-lysine N-methyltransferase NSD2 (Homo sapiens, UniProt O96028).
T2 sequence (O96028 whole entry): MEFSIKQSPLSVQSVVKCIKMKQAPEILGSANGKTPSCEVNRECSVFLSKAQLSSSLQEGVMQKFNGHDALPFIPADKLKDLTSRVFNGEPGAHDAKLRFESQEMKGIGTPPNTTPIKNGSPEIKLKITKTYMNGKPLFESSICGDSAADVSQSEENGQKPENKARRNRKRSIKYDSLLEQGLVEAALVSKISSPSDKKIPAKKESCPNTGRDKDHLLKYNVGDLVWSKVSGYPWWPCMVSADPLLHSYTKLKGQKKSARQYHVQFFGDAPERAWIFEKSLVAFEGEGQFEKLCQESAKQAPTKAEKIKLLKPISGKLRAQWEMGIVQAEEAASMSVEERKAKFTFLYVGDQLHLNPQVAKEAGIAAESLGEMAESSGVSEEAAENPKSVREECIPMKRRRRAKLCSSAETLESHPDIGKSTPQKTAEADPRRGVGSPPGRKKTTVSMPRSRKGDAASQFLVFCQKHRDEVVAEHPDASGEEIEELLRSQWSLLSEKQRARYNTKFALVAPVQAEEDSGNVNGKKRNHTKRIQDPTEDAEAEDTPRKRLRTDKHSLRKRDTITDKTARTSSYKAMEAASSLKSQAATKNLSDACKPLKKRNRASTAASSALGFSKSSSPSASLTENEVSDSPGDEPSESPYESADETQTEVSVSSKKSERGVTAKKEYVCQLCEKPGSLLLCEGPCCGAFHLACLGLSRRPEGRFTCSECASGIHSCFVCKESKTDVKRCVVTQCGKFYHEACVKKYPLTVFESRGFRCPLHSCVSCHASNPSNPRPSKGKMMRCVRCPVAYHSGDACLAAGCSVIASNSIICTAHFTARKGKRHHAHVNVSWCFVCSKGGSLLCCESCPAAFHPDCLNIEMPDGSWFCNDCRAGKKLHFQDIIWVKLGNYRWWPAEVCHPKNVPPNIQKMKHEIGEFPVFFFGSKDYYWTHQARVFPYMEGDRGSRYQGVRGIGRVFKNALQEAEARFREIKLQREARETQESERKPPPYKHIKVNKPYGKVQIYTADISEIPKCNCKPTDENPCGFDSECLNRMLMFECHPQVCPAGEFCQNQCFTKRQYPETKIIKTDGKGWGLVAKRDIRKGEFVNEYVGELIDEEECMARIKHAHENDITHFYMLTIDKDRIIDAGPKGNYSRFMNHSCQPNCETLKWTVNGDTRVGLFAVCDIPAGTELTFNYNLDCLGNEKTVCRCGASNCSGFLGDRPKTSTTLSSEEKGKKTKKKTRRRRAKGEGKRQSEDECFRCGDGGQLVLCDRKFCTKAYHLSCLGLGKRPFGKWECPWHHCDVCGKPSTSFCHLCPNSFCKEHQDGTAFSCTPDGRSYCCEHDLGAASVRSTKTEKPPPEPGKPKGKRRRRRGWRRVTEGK
The format is biochemical.

The target in assay [13] is T3, Heat shock factor protein 1 (Mus musculus, UniProt P38532).
T3 sequence (P38532 whole entry): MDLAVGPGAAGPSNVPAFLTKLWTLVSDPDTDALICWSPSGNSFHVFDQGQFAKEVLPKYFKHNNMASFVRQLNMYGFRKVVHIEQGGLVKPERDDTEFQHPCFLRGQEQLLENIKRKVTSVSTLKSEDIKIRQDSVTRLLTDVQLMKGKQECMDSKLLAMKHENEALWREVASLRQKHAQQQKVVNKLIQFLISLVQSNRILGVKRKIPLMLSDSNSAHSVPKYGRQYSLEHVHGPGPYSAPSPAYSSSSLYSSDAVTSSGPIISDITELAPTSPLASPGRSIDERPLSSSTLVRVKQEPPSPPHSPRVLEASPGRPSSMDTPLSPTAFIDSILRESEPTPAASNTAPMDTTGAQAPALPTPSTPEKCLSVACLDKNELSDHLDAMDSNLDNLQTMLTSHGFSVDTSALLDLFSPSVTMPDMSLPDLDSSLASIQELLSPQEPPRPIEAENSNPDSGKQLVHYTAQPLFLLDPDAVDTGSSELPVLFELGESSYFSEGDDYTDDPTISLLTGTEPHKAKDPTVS
As to the kind of experiment: decrease of HSF1-responsive luciferase luminescence – cell-based, NIH3T3, dose retest, confirmation (AID 2382).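 Further: NIH3T3 fibroblasts with HSF1-driven luciferase reporter stressed by proteasome inhibitor MG132; luminescence from HSF1-driven luciferase expression after 8 hours of MG132 stress.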 Format: functional.

A short description of assay [14]: viability loss in HeLa cells – cytotoxicity control for MgcRacGAP inhibitor project, dose response (AID 624300). The format is functional.
For assay [15], the target named is T4, Rac GTPase-activating protein 1 (Homo sapiens, UniProt Q9H0H5).
T4 sequence (Q9H0H5 whole entry): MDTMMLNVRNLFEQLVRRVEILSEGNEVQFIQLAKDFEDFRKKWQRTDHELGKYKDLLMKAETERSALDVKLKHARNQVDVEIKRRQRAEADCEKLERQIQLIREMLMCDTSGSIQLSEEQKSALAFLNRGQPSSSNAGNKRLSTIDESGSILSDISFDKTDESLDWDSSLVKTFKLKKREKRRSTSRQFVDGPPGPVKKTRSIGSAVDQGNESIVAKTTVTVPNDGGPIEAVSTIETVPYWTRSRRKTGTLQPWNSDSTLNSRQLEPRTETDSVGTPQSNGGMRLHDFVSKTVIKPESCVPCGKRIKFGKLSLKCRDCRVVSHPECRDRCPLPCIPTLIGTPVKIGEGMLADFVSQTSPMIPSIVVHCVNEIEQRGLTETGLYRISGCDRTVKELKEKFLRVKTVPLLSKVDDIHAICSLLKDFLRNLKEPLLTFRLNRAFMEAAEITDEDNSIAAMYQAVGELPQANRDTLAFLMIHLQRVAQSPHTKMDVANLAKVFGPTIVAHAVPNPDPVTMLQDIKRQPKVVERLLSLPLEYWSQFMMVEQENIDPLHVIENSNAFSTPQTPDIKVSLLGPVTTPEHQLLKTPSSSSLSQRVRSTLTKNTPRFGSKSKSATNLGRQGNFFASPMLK
As to the kind of experiment: blockers of MgcRacGAP-driven Rac1 GTP hydrolysis – biochemical, ADP Hunter fluorescence, primary and confirmatory, confirmation (AID 624330). Format: functional.

In assay [16] the target is G-protein coupled receptor 55 (Homo sapiens, UniProt Q9Y2T6). The experiment in a line: selective activators of receptor GPR55 – imaging, U2OS cells, beta-arrestin-GFP redistribution, primary screen (AID 1961). The format is functional.
The target of assay [17] is Eukaryotic translation initiation factor 4E (Mus musculus, UniProt P63073). As to the kind of experiment: blockers of eIF4G binding by eIF4E – biochemical, TR-FRET, dose response (AID 855).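 Further: potency for disrupting eIF4E binding to eIF4GI seen as loss of FRET.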 The format is functional.
Eukaryotic translation initiation factor 4E, sequence (P63073 whole entry): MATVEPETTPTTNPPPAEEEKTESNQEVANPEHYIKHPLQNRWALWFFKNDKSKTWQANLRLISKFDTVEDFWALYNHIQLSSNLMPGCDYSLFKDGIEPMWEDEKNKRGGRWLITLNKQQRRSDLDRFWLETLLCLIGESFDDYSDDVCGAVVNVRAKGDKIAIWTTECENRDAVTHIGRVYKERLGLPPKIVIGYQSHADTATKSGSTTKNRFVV

Peroxisome proliferator-activated receptor gamma/Nuclear receptor coactivator 2, sequence (P37231 whole entry): as the sequence (P37231 whole entry) above
Peroxisome proliferator-activated receptor gamma/Nuclear receptor coactivator 2, sequence (Q15596 whole entry, further chain): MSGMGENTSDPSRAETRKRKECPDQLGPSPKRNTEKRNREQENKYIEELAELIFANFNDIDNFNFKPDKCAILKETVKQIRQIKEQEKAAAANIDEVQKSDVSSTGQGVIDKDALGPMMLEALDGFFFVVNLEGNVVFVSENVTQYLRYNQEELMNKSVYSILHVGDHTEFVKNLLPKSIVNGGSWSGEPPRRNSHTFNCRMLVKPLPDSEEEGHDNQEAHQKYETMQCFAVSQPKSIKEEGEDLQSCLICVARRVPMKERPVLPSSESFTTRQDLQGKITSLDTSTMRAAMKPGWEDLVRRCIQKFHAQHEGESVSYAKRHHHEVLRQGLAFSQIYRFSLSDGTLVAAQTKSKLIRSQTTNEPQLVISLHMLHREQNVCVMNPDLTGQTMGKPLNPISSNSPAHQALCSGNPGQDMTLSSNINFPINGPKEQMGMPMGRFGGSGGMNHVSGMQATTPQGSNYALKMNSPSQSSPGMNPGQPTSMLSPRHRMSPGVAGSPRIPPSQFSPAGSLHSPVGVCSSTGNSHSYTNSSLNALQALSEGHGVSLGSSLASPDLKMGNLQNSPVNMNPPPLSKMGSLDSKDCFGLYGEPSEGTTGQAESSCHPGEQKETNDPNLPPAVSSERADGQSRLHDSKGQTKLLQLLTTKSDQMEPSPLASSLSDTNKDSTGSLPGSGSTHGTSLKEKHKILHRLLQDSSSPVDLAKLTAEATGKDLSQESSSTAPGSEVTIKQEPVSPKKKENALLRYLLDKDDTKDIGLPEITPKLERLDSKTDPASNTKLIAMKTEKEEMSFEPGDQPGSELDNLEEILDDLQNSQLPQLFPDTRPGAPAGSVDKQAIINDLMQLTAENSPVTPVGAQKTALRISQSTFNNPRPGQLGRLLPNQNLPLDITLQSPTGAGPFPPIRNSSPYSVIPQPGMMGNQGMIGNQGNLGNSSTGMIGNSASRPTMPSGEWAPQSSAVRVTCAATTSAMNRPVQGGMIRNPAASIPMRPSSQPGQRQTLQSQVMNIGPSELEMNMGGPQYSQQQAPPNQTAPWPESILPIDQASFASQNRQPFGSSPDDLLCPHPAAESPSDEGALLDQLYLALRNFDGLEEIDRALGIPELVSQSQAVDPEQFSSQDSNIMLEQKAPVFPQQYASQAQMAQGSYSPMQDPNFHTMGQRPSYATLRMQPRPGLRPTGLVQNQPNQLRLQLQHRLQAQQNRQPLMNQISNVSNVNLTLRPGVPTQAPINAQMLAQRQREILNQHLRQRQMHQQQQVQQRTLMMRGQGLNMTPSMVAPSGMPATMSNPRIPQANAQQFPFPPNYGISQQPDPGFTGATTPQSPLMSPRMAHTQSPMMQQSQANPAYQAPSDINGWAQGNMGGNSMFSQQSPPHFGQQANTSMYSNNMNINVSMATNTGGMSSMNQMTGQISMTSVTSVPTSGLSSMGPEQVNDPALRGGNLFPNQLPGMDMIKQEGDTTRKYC
DNA dC->dU-editing enzyme APOBEC-3G, sequence (Q9HC16 whole entry): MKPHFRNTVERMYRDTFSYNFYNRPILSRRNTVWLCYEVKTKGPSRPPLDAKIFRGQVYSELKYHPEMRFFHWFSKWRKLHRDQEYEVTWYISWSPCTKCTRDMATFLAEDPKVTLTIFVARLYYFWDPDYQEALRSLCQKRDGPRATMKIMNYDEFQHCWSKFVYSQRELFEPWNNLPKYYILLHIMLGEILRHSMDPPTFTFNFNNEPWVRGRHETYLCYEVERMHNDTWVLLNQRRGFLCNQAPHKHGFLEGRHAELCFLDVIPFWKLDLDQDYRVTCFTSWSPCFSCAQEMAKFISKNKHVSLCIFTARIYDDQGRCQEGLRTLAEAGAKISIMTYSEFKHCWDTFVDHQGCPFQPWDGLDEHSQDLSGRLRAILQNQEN
Glucose-6-phosphate 1-dehydrogenase, sequence (P11413 whole entry): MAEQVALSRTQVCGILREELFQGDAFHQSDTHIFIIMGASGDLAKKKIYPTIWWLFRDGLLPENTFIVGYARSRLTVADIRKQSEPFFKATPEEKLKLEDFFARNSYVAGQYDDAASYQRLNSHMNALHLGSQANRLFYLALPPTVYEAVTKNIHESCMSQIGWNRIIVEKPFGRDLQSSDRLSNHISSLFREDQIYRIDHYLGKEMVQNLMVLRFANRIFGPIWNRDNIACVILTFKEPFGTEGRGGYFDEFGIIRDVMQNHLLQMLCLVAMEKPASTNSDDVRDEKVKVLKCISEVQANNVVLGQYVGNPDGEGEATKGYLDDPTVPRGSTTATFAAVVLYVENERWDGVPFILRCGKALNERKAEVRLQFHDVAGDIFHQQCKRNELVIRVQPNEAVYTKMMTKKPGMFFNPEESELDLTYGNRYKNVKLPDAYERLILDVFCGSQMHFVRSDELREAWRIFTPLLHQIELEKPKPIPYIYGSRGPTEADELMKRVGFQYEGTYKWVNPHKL

For the molecule `Cc1[nH][nH]c(=O)c1N=Nc1ccccc1Cl`, in assay [1], the concentration at half-maximal activity (AC50) (commonly the concentration giving half of the maximal activity seen) was 28.9 µM (active).

With `COc1ccc(C2=Nn3c(nnc3-c3ccccc3OC)SC2)cc1OC1CCCC1`, in assay [2], the IC50 (commonly the concentration that inhibits the measured activity by half) is 35.9 µM (inactive).

With `CCn1c(SCc2c(Cl)cccc2Cl)nnc1-c1nn(-c2ccccc2)ccc1=O`, the CC50 – broadly, the concentration at which the toxic effect on the cells reaches its halfway point – in assay [3] is 49.8 µM (active). Further, in the assay “cells”, the concentration for half-maximal inhibition (IC50) is 33.7 µM (active).

In the case of `CCOC(=O)c1[nH]c(C)c(C(=O)Nc2ccccc2C)c1C`, in assay [2], the IC50 is > 80 µM (inactive).

For the molecule `COc1cc(C(C(=O)NC2CCCCC2)N(C(=O)c2snc(C(N)=O)c2N)c2ccc(C)cc2)ccc1O` (stereo not given), the cytotoxic concentration (CC50) in [3] is > 50 µM (active). Further, the IC50 in “cells” is 47 µM (active).

For the molecule `CCc1ccc(-n2c(C)nnc2S)cc1`, the IC50 in assay [4] was 14.6 µM (active).

Consider `CC(C)(C)C1=Nn2c(nnc2-c2n[nH]c3c2CCC3)SC1`, for which the figures for the IC50 in assay [5] and in assay [4] were > 50 µM (not active) and 23.3 µM (active), respectively.

For `CC1=NOC(=O)/C1=C\c1ccc(-c2ccccc2Br)o1`, the concentration giving a half-maximal response (EC50) – broadly, the midpoint of the concentration-response curve – is 9.24 µM (active) in assay [6], > 79.4 µM (not active) in assay [7] and 5.02 µM (active) in assay [8]. Also, the concentration for half-maximal inhibition (IC50) was 16.4 µM (active) on Large T antigen and > 80 µM (inactive) in [9]. In addition, the concentration at half-maximal activity (AC50) is 6.48 µM (active) in assay [10], > 70 µM (inactive) in assay [11] and > 20 µM (inactive) in assay [12].

As to `O=C(O)Cc1sc(-c2ccccc2)nc1-c1cccs1`, the EC50 was 94.8 µM (inactive) in assay [6], > 79.4 µM (not active) in [7] and 26 µM (not active) in assay [8].

On to `Cn1c(=O)cc(SCC(=O)N2CCN(C(=O)c3ccco3)CC2)c2ccccc21`, for which the EC50 is > 79.4 µM (inactive) in assay [6], > 79.4 µM (not active) in assay [7], > 195 µM (not active) in [13] and > 79.4 µM (not active) in assay [8].

Regarding `COCCNC(=O)c1ccc2c(c1)nc(C)n2-c1cccc(F)c1`, the AC50 in assay [1] was 98.8 µM (active).

Take `Cc1ccnc(Nc2nc(-c3ccc(O)c(O)c3)cs2)c1`: in [1], the AC50 was 10.1 µM (active). In assay [14], the CC50 was 69.5 µM (active). In addition, in assay [15], the IC50 was 41.3 µM (active).

As for `CCOC(=O)c1sc2cc([N+](=O)[O-])cc(SCC(C)C)c2c1N`, the EC50 in [16] is 0.523 µM (active).

With `CCN(CC)S(=O)(=O)c1cc(F)ccc1OC`, in assay [17], the IC50 is > 64 µM (inactive).

In the case of `COC(=O)c1ccccc1NC(=O)COC(=O)c1ccc(C)c(NC(=O)c2ccco2)c1`, the IC50 in assay [17] is > 64 µM (inactive).

Turning to `CCOC(=O)C1CCN(C(=O)CSc2cc(=O)n(CC)c3ccccc23)CC1`, the EC50 in [6] is > 79.4 µM (inactive); in assay [7] it was > 79.4 µM (not active); in assay [8], > 79.4 µM (not active).
